The record followed here is ChEMBL document CHEMBL1137188, “Substituted 6-phenyl-pyridin-2-ylamines: selective and potent inhibitors of neuronal nitric oxide synthase” (Bioorg Med Chem Lett, 2004).

For one test, the target named is Nitric oxide synthase 1 (Homo sapiens, UniProt P29475). The test is described as follows: Inhibitory activity against neuronal nitric oxide synthase in human.
The next test addresses T1, Nitric oxide synthase 3 (Homo sapiens, UniProt P29474).
T1 sequence (P29474 whole entry): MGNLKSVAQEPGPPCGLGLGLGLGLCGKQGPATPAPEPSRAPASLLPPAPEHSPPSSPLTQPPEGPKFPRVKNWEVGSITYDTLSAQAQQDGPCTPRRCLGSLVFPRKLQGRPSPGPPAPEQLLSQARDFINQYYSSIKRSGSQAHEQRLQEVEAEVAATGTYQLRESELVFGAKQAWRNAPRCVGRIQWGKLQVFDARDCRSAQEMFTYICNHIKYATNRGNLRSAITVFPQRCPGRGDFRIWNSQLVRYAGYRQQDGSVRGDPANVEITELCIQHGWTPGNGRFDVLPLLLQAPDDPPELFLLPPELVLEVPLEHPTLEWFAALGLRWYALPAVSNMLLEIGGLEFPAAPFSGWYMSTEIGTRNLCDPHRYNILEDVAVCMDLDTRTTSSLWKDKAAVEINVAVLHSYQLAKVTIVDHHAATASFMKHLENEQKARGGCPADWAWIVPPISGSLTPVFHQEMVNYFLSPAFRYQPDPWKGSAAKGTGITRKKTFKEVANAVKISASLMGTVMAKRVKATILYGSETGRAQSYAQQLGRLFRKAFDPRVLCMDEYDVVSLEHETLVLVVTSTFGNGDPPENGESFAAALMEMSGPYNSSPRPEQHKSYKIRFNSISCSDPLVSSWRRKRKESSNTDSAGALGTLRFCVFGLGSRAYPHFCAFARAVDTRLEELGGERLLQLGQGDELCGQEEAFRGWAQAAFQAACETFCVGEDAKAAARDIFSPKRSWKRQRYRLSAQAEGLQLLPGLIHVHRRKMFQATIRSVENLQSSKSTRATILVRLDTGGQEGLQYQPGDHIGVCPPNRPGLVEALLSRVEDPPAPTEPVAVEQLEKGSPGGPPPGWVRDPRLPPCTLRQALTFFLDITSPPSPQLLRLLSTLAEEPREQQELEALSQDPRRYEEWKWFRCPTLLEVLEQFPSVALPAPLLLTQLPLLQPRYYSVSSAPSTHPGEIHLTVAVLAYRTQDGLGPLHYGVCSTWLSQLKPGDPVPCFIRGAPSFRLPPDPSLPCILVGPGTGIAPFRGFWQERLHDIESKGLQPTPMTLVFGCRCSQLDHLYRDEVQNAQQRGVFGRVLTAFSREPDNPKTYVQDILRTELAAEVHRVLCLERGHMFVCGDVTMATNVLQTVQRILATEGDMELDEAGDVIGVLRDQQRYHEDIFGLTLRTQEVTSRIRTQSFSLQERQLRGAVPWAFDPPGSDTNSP
The test is described as follows: Inhibitory activity against endothelial nitric oxide synthase in human.

Molecules are shown by their SMILES.

Sequence of Nitric oxide synthase 1 (P29475 whole entry): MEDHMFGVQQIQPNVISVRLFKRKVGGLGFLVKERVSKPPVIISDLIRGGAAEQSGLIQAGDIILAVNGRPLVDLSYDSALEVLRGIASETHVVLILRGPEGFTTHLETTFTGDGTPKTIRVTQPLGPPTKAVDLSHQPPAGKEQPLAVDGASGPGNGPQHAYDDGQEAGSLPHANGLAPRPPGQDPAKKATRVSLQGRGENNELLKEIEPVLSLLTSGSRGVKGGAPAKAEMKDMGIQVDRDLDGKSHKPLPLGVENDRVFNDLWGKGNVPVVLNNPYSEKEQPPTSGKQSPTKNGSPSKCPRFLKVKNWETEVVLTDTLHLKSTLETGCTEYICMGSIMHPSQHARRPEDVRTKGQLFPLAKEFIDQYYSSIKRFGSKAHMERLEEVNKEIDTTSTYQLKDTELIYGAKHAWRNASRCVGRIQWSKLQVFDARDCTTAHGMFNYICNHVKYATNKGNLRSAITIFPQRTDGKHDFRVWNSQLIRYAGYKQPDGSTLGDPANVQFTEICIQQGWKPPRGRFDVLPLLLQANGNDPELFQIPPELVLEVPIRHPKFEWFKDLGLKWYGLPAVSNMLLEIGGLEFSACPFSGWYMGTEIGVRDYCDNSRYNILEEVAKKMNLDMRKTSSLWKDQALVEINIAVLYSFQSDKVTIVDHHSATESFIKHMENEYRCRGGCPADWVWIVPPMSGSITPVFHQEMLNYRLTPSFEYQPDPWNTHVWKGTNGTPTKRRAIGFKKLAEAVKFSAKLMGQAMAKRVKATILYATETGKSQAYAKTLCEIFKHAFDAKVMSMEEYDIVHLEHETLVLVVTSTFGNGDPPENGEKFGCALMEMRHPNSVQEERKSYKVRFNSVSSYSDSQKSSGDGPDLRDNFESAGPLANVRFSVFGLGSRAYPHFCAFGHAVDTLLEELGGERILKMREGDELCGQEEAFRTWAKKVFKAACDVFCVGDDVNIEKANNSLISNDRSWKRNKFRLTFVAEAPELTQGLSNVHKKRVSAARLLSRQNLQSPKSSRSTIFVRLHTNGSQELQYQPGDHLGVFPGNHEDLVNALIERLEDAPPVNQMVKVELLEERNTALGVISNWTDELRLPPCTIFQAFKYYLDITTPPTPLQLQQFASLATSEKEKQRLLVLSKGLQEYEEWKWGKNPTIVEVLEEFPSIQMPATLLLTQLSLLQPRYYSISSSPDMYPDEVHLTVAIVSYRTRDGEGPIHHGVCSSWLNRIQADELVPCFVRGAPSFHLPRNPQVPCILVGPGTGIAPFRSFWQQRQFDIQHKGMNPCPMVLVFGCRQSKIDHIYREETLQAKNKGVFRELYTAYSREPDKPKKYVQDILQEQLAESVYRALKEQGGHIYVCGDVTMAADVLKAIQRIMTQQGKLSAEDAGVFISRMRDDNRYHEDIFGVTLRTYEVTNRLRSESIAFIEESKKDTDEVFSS

In the case of `CCc1cc(-c2cccc(N)n2)c(OC)cc1CCN(C)C`, the values for the IC50 at Nitric oxide synthase 1 and against Nitric oxide synthase 3 were 0.075 µM and 16.5 µM, respectively.
Taken in the same sequence, the figures for `COc1cc(-c2cccc(N)n2)c(OC)cc1CN(C)C` were 0.81 µM and > 32 µM.
For `CCc1cc(-c2cccc(N)n2)c(OC)cc1OCCN(C)C`, the IC50 stood at 0.058 µM on Nitric oxide synthase 1 and 3.71 µM on Nitric oxide synthase 3.
Regarding `COc1cc(-c2cccc(N)n2)c(OC)cc1CCCN(C)C`, the IC50 against Nitric oxide synthase 1 was 0.2 µM; on Nitric oxide synthase 3, > 32 µM.
For `CCc1cc(-c2cccc(N)n2)c(OC)cc1CN(C)C`, at Nitric oxide synthase 3, the IC50 is 8.83 µM.
As for `COc1cc(-c2cccc(N)n2)c(OC)cc1CCN(C)C`, the IC50 against Nitric oxide synthase 1 was 0.235 µM; against Nitric oxide synthase 3, > 32 µM.
Taken in the same sequence, the figures for `COc1cc(-c2cccc(N)n2)c(OC)cc1OCCN(C)C` were 0.112 µM and 21.9 µM.
In the case of `CCc1cc(-c2cccc(N)n2)c(OC)cc1CCCN(C)C`, the IC50 on Nitric oxide synthase 1 was 0.075 µM; against Nitric oxide synthase 3 it was > 7.7 µM.
